Common to all, as to assay type: cell-based
The test system of test [1] is LOX cells. Nature of the test: Cell viability (CellTiter-Glo ATP content) in LOX cells. To be noted: LOX, 72 h, 72 hours treatment, cell survival by CellTiter-Glo, 2% fetal bovine serum. The method, boiled down: (§1)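 Cells plated at 5,000 per well in antibiotic-free RPMI with 2% FBS, treated next day in triplicate with increasing compound doses (final DMSO 0.5%) for 72 hours. Viability read as ATP content by CellTiter-Glo luminescence; percent survival relative to vehicle control set as 100%.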

Test [2] concerns A549 cells. Nature of the test: Cell viability (CellTiter-Glo ATP content) in A549 cells. To be noted: Homo sapiens, A549, 72 h, 72 hours treatment, cell survival by CellTiter-Glo, 2% fetal bovine serum. The method, boiled down:
as §1
On the technique in general: In ATP-based viability assays light output follows the ATP content of the culture.

Test [3] concerns MelJuSo cells. The test is described as follows: Cell viability (CellTiter-Glo ATP content) in MelJuSo cells. To be noted: Homo sapiens, MEL-JUSO, 72 hours treatment, cell survival by CellTiter-Glo, 2% fetal bovine serum. The method, boiled down:
as §1

Bounds are passed on as bounds.

Consider `CCCCC1C(c2ccc(F)cc2)=NN(c2ccccc2)C1(C)C(=O)N(CCO)Cc1ccccc1` (stereo not drawn) [Compound 78, N-benzyl-4-butyl-3-(4-fluorophenyl)-N-(2-hydroxyethyl)-5-methyl-1-phenyl-4,5-dihydro-1H-pyrazole-5-carboxamide], for which the IC50 in test [1], in test [2] and in test [3] was above 2 µM in each case.
As for `CCCCC1C(c2ccc(F)cc2)=NN(c2ccc(F)cc2F)C1(C)C(=O)NCCCCOC` (stereo not drawn) [Compound 25, 4-butyl-1-(2,4-difluorophenyl)-3-(4-fluorophenyl)-N-(4-methoxybutyl)-5-methyl-4,5-dihydro-1H-pyrazole-5-carboxamide], the IC50 – broadly, the concentration at which inhibition is half-maximal – in test [1] was above 2 µM; in test [2], above 2 µM; in test [3], 1 to 2 µM.
As to `CCCCC1C(c2ccc(F)cc2)=NN(c2ccccc2)C1(C)C(=O)NCC1CC1` (stereo not drawn) [Compound 73, 4-butyl-N-(cyclopropylmethyl)-3-(4-fluorophenyl)-5-methyl-1-phenyl-4,5-dihydro-1H-pyrazole-5-carboxamide], the IC50 in test [1] was 1 to 2 µM; in test [2] it was above 2 µM; in test [3], 1 to 2 µM.
`CCCCC1C(c2ccc(F)cc2)=NN(c2ccccc2)C1(C)C(=O)NCC(C)N(C)C` (stereo not drawn) [Compound 76, 4-butyl-N-(2-(dimethylamino)propyl)-3-(4-fluorophenyl)-5-methyl-1-phenyl-4,5-dihydro-1H-pyrazole-5-carboxamide]: the IC50 in test [1], in test [2] and in test [3] was above 2 µM in each case.
`CCCCC1C(c2ccc(F)cc2)=NN(c2ccc(F)cc2F)C1(C)C(=O)NCCCOC` (stereo not drawn) [Compound 5, 4-butyl-1-(2,4-difluorophenyl)-3-(4-fluorophenyl)-N-(3-methoxypropyl)-5-methyl-4,5-dihydro-1H-pyrazole-5-carboxamide]: the figures for the IC50 in test [1], in test [2] and in test [3] were 1 to 2 µM, 1 to 2 µM and 0.5 to 1 µM, respectively.
`CCCCC1C(c2ccc(F)cc2)=NN(c2ccccc2)C1(C)C(=O)NCCCCCO` (stereo not drawn) [Compound 33, 4-butyl-3-(4-fluorophenyl)-N-(5-hydroxypentyl)-5-methyl-1-phenyl-4,5-dihydro-1H-pyrazole-5-carboxamide]: the IC50 in test [1] was 1 to 2 µM; in test [2], above 2 µM; in test [3], 0.5 to 1 µM.
In the case of `CCCCC1C(c2ccc(F)cc2)=NN(c2ccccc2)C1(C)C(=O)NCCF` (stereo not drawn) [Compound 70, 4-butyl-N-(2-fluoroethyl)-3-(4-fluorophenyl)-5-methyl-1-phenyl-4,5-dihydro-1H-pyrazole-5-carboxamide], the IC50 in test [1] is 1 to 2 µM; in test [2] it was above 2 µM; in test [3], 0.5 to 1 µM.
The matching figures for `CCCCC1C(c2ccc(F)cc2)=NN(c2ccc(Cl)cc2C)C1(C)C(=O)NCCCOC` (stereo not drawn) [Compound 30, 4-butyl-1-(4-chloro-2-methylphenyl)-3-(4-fluorophenyl)-N-(3-methoxypropyl)-5-methyl-4,5-dihydro-1H-pyrazole-5-carboxamide]: above 2 µM, above 2 µM and above 2 µM.
For the compound `CCCCC1C(c2ccc(F)cc2)=NN(c2ccccc2)C1(C)C(=O)NCc1ccc(Cl)c(Cl)c1` (stereo not drawn) [Compound 40, 4-butyl-N-(3,4-dichlorobenzyl)-3-(4-fluorophenyl)-5-methyl-1-phenyl-4,5-dihydro-1H-pyrazole-5-carboxamide], the IC50 in test [1], in test [2] and in test [3] was above 2 µM throughout.
As to `CCCCC1C(c2ccc(F)cc2)=NN(c2cccc(F)c2)C1(C)C(=O)NCCCCC(C)(C)O` (stereo not drawn) [Compound 7, 4-butyl-1-(3-fluorophenyl)-3-(4-fluorophenyl)-N-(5-hydroxy-5-methylhexyl)-5-methyl-4,5-dihydro-1H-pyrazole-5-carboxamide], the IC50 in test [1] is 1 to 2 µM; in test [2], above 2 µM; in test [3], 0.5 to 1 µM.
The matching figures for `CCCCC1C(c2ccc(F)cc2)=NN(c2ccccc2)C1(C)C(=O)NC(C)(C)CO` (stereo not drawn) [Compound 37, 4-butyl-3-(4-fluorophenyl)-N-(1-hydroxy-2-methylpropan-2-yl)-5-methyl-1-phenyl-4,5-dihydro-1H-pyrazole-5-carboxamide]: above 2 µM, above 2 µM and above 2 µM.
Turning to `COC(=O)CNC(=O)C1(C)C(c2ccc(Cl)o2)C(c2ccc(F)cc2F)=NN1c1ccc(F)cc1F` (stereo not drawn) [Compound 121, methyl 2-(4-(5-chlorofuran-2-yl)-1,3-bis(2,4-difluorophenyl)-5-methyl-4,5-dihydro-1H-pyrazole-5-carboxamido)acetate], the IC50 in test [1], in test [2] and in test [3] was below 0.25 µM throughout.
For `CCCCC1C(c2ccc(F)cc2F)=NN(c2ccc(F)cc2F)C1(C)C(=O)NCCCC(C)(C)CO` (stereo not drawn) [Compound 89, 4-butyl-1,3-bis(2,4-difluorophenyl)-N-(5-hydroxy-4,4-dimethylpentyl)-5-methyl-4,5-dihydro-1H-pyrazole-5-carboxamide], the IC50 in test [1] was in the range of 0.5 to 1 µM; in test [2], 1 to 2 µM; in test [3], 0.5 to 1 µM.
On to `CCCCC1C(c2ccc(F)cc2)=NN(c2ccc(Cl)cc2F)C1(C)C(=O)NCCCC(C)(C)CO` (stereo not drawn) [Compound 23, 4-butyl-1-(4-chloro-2-fluorophenyl)-3-(4-fluorophenyl)-N-(5-hydroxy-4,4-dimethylpentyl)-5-methyl-4,5-dihydro-1H-pyrazole-5-carboxamide], for which the results for the IC50 in test [1], in test [2] and in test [3] were 0.5 to 1 µM, 0.5 to 1 µM and 0.25 to 0.5 µM, respectively.
On to `CCCCC1C(c2ccc(F)cc2)=NN(c2ccccc2)C1(C)C(=O)N(C)Cc1cc(OC)cc(OC)c1` (stereo not drawn) [Compound 52, 4-butyl-N-(3,5-dimethoxybenzyl)-3-(4-fluorophenyl)-N,5-dimethyl-1-phenyl-4,5-dihydro-1H-pyrazole-5-carboxamide], for which the IC50 in test [1], in test [2] and in test [3] was above 2 µM throughout.

Values taken from US12227482B2, “Compounds and compositions for the treatment of cancer” (The Regents of the University of California, priority 2016, dated 2025).
